One assay has as its system antisera. As to the kind of experiment: Inhibition ELISA: cross-reactivity of antisera with peptides of different length. As to conditions: antisera against octapeptide QESGVSGR
It is filed as binding, mice. The method, then: Immunization of mice: Separate groups of BCG-vaccinated mice were immunized with six doses (10 μg carrier) of each of these conjugates at 14-day intervals and their sera tested by ELISA in wells coated with the corresponding peptide coupled at molar ratios of 5:1 or 2.5:1 to the opposite carrier at a coating concentration of 10 μg/ml (with respect to carrier) in 0.05 M sodium carbonate buffer, pH 9.6.
In general terms: An ELISA detects its analyte on a solid surface through an enzyme-linked reagent.

The test system of the next assay is HYB 100-01-POD. As to the kind of experiment: ELISA: effect of peptide length and N-terminus on the signal with TAL reagent and HYB 100-01-POD. It is filed as binding. Particulars: Example 6, FIG. 6, activated TAL, HYB 100-01-POD 0.5 μg/ml; for signal: peptide coupled to Immobilizer plate. The procedure:
PBS (100 μl) was added to all wells of an Immobilizer 96-well microtiter plate (Nunc). The relevant peptides (SEQ ID NO:11, 13, 14, 15 and 16) were all diluted to 50 μg/ml in PBS and 100 μl of individual solutions added to the first well of the respective row. […] The peptides were allowed to couple to the plate for two hours at 20-25° C. Residual coupling activity was reduced by the addition of 50 μl of 50 mM Tris Buffer, pH 8.0, for 30 minutes. Each well was then washed with 100 μl of PBS. To 0.5 ml of TAL reagent (Zhanjiang A&C Biologicals Ltd) was added 15 EU of Control Standard Endotoxin (CSE) followed by 12 ml of endotoxin-free PBS, and 100 μl of this solution was then added to each well. The plate was then incubated at 37° C. for 45 minutes.

The next assay has as its system TAL reagent. Particulars: Example 4, FIG. 4; peptide at 40 ng/ml, detection with HYB 100-01-POD.

No end group written: not given here. *: point of attachment. Biotin = O=C1N[C@H]2[C@H](CS[C@H]2CCCCC(=O)*)N1

With AQESGVSGR [nonapeptide], the cross-reactivity in the assay on antisera is listed as above 100%.
With “Biocytin-VQAITDKDEISGR [Peptide SEQ ID NO:11]”, in the assay on HYB 100-01-POD, the “coating concentration at which the maximal (or similar) signal is reached” value is on record as “about 0.05 μg/ml” and the signal result is given as “much stronger signal”.
As for “Biocytin-VQAITDKDEISGRGF [Peptide SEQ ID NO:16]”, in the assay with HYB 100-01-POD, the signal entry is given as “slightly lower signal”.
With “Biotin-VQAITDKDEISGRGF [Peptide SEQ ID NO:12]”, the “cleavage by endotoxin-activated TAL” value with TAL reagent is given as “site-specific cleavage”.
For the substance DKDEISGR [Peptide SEQ ID NO:14], the signal result in the assay on HYB 100-01-POD was “almost totally lost”.
With GVSGR [pentapeptide], in the assay on antisera (result in words), the cross-reactivity result is “little or no cross-reactivity”.
For ITDKDEISGR [Peptide SEQ ID NO:15], the “coating concentration at which the maximal (or similar) signal is reached” value with HYB 100-01-POD was in the range of 12.5 to 25 µg/mL.

Values taken from patent publication US20050079566A1, “Analytical methods for determination of proteolytic cleavage at specific sites” (priority 2003, published 2005).
